Values joined by “and” are separate entries in the source; they are usually repeats but may differ in a detail not shown here. Identical values can stand only once. Like-named read-outs stand apart in the source and are kept apart here.
Tests used:
egg albumin = biological target: T1, egg albumin (Gallus gallus, UniProt P01012); experiment: In situ anti-inflammatory assay: inhibition of protein (albumin) denaturation
T1 sequence (P01012 1-386): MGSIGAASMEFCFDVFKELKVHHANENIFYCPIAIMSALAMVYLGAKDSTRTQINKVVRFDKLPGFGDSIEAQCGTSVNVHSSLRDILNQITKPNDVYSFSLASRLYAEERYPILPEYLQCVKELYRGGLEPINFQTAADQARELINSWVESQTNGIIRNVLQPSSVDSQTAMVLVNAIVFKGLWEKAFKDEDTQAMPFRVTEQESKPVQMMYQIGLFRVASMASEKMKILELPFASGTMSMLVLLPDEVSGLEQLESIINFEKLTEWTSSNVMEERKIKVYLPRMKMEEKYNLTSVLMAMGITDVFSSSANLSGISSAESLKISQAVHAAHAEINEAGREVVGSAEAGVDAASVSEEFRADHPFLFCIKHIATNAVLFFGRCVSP
Protocol: Protein denaturation is used for the evaluation of anti-inflammatory activity. In this methodology, generally, tertiary and secondary protein structures will typically be destroyed by the application of an external molecule or stress. The biological function of most bio-proteins is lost if it is denatured. It is well reported that a basis of inflammation is denaturation of protein.
The reaction mixture is molecules with serial dilutions (1000, 100, 10, 1, 0.1 µM), phosphate buffered saline (PBS; pH 6.4), and egg albumin. The control used was double distilled water (equal volume). […] After attaining ambient temperature, the absorbance of samples was measured spectrophotometrically at 660 nm using vehicle as blank. […] The experiment was performed in triplicate. Percent inhibition of protein denaturation was calculated using the Equation Inhibition (%) of protein denaturation inhibition (%) = (AC − AS)/AC × 100 where AC: absorbance of control, AS: absorbance of sample.

human recombinant COX-2 = biological target: T2, human recombinant COX-2 (Homo sapiens, UniProt P35354); experiment: In vitro COX-2 inhibition, enzyme immunoassay kit (Cayman item no. 560131); type: biochemical
T2 construct: purchased Cayman Chemical 560131
T2 sequence (P35354 18-604): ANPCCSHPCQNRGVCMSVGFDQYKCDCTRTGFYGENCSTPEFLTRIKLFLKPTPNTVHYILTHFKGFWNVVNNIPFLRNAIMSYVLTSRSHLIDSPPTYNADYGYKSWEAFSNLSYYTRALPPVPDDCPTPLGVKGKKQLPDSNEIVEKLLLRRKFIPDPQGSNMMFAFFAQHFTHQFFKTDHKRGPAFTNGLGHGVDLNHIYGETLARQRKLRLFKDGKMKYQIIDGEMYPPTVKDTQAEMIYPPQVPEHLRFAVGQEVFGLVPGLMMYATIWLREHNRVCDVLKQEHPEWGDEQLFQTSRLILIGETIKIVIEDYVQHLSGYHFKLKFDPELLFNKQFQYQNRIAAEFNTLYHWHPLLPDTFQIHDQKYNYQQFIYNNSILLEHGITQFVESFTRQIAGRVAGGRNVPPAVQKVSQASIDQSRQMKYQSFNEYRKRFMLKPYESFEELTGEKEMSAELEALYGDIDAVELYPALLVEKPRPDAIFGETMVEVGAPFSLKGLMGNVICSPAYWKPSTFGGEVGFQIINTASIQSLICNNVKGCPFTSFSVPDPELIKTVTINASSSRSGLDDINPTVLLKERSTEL
Description: (§1) The in vitro COX-1/COX-2 isozyme inhibition studies measure the ability of tested compounds to inhibit bovine COX-1 and human recombinant COX-2 using an enzyme immunoassay (COX inhibitor screening assay kit, item no. 560131) according to the manufacturer’s instructions. […].

bovine COX-1 = biological target: T3, bovine COX-1 (Ovis aries, UniProt P05979); experiment: In vitro COX-1 inhibition, enzyme immunoassay kit (Cayman item no. 560131); type: biochemical; conditions: mean of two determinations
T3 construct: purchased Cayman Chemical 560131
T3 sequence (P05979 25-600): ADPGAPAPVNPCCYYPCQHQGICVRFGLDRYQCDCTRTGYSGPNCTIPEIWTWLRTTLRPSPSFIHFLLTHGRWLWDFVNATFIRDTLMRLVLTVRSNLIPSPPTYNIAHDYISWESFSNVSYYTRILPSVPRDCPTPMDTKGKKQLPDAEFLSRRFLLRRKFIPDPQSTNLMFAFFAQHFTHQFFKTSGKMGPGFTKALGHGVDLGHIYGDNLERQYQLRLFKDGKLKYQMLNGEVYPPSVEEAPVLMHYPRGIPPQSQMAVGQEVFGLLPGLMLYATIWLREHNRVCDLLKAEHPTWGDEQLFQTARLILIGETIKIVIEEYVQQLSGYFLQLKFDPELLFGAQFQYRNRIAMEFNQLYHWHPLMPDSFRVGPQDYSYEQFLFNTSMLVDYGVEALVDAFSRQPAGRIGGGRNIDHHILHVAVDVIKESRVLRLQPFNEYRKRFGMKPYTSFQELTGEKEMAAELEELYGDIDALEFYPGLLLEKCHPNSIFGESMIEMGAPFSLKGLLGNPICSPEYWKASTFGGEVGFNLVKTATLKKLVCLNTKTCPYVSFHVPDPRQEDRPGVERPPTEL
Description: as §1

**Q.** Which LogIC50 protein denaturation (egg albumin; GraphPad prism curve fit, IC50 in µM (Figure 3)) does the source give for `COc1ccc(C=Nn2c(COc3ccc4ccccc4c3)nnc2Sc2cnc(N)s2)cc1` [Compound 12d, 5-((4-((4-methoxybenzylidene)amino)-5-((naphthalen-2-yloxy)methyl)-4H-1,2,4-triazol-3-yl)thio)thiazol-2-amine] here?
**A.** Its LogIC50 protein denaturation is -0.008534.

**Q.** What about the IC50 (egg albumin; non-linear regression, sigmoidal dose-inhibition fit, GraphPad prism) of the same compound?
**A.** Its IC50 is 0.981 µM and 0.98 µM.

**Q.** What about the inhibition at 1000 µM (egg albumin; protein denaturation, conc. 1000 µM, three replicates, read-out: % of inhibition ± SEM at conc. 1000) of the same compound?
**A.** Its inhibition at 1000 µM is 91.2%.

**Q.** And the “% of inhibition ± SEM at conc. 0.1” value (egg albumin; protein denaturation, conc. 0.1 (µM), three replicates)?
**A.** Its value is 29.21±1.12%.

**Q.** What about the “% of inhibition ± SEM at conc. 1” value (egg albumin; protein denaturation, conc. 1 (µM), three replicates) of the same compound?
**A.** The value was 59.20±1.34%.

**Q.** What about the “% of inhibition ± SEM at conc. 10” value (egg albumin; protein denaturation, conc. 10 (µM), three replicates) of the same compound?
**A.** The value was 72.12±1.27%.

**Q.** What about the “% of inhibition ± SEM at conc. 100” value (egg albumin; protein denaturation, conc. 100 (µM), three replicates) of the same compound?
**A.** Its value is 89.31±1.26%.

**Q.** And the “COX-2 S.I. (selectivity index, COX-1 IC50/COX-2 IC50)” value (human recombinant COX-2)?
**A.** The value was 311.0 and 325.0.

**Q.** What about the IC50 (human recombinant COX-2; human recombinant COX-2, mean of two determinations, read-out: IC50 COX-2) of the same compound?
**A.** The IC50 was 0.04 µM.

**Q.** And the IC50 (human recombinant COX-2; pIC50 = −Log (IC50) of the COX-2 IC50, read-out: Activity (experimental pIC50, COX-2) (converted))?
**A.** Its IC50 is 0.0418 µM and 0.0401 µM.

**Q.** What about the IC50 (bovine COX-1) of the same compound?
**A.** The IC50 was 13 µM.

**Q.** And the melting point?
**A.** The melting point was 69 to 70 °C.

From article PMC7694773, “Synthesis, 3D-QSAR, and Molecular Modeling Studies of Triazole Bearing Compounds as a Promising Scaffold for Cyclooxygenase-2 Inhibition” (Pharmaceuticals, 2020)
